From US11965039B2, “Compstatin analogues and their medical uses” (priority 2018, dated 2024)
Positions of bridges follow the written chain, without caps; N, C: chain ends. Non-standard residues stand in square brackets, D forms with d. Residues, ends and D or L forms follow the SMILES beside them. Sar = CNCC(=O)O

Legend:
[1] = Solubility test at 10 mg/mL (visual inspection and light scattering); format: physicochemical; conditions: for Solubility, Condition 1: Acetate pH 4; for Solubility, Condition 2: Acetate pH 5; for Solubility, Condition 3: Phosphate pH 6; for Solubility, Condition 4: Phosphate pH 7; for Solubility, Condition 5: Phosphate pH 7.5
[2] = system: classical complement pathway; assay: In vitro haemolysis assay (inhibition of classical complement pathway); format: cell-based, human; conditions: human serum, sensitized sheep red blood cells; Table 3, given as upper bounds; read-out: IC50, inhibition of hemolysis
Method in brief: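 Compound dilutions preincubated 15 min at room temperature with diluted human serum (titrated per batch for 70-90% maximal haemolysis), then antibody-sensitized sheep RBC (10^7/well) added for 30 min at 37 °C in Tris/casein buffer, pH 7.4. Stopped with EDTA; haemolysis read at 405 nm; IC50 by 4PL fit.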

SMILES	Solubility, Condition 1 [1]	Solubility, Condition 2 [1]	Solubility, Condition 3 [1]	Solubility, Condition 4 [1]	Solubility, Condition 5 [1]	IC50 [2] [nM]
CC[C@H](C)[C@@H]1NC(=O)[C@@H](NC(=O)[C@@H](NC(=O)[C@H](CCC(=O)O)NC(=O)[C@H](CO)NC(=O)[C@H](CCC(=O)O)NC(C)=O)[C@@H](C)CC)CSSC[C@@H](C(=O)N[C@H](C(N)=O)[C@@H](C)O)NC(=O)[C@H](CCCNC(=N)N)NC(=O)[C@H](Cc2c[nH]cn2)NC(=O)[C@H](CCC(=O)O)NC(=O)CNC(=O)[C@H](Cc2c[nH]c3ccccc23)NC(=O)[C@H](CC(=O)O)NC(=O)[C@H](CCC(N)=O)NC(=O)[C@H](Cc2c[nH]c3ccccc23)NC1=O [Compound 31] (Ac-ESEICIWQDWGEHRCT-NH2; disulfide 5-15)	+ (“+” denotes solubility at the given condition, as determined by UV absorbance being less than 0.1 AU at 340 nm and the sample being clear when manually inspected)	+ (“+” denotes solubility at the given condition, as determined by UV absorbance being less than 0.1 AU at 340 nm and the sample being clear when manually inspected)	+ (“+” denotes solubility at the given condition, as determined by UV absorbance being less than 0.1 AU at 340 nm and the sample being clear when manually inspected)	+ (“+” denotes solubility at the given condition, as determined by UV absorbance being less than 0.1 AU at 340 nm and the sample being clear when manually inspected)	+ (“+” denotes solubility at the given condition, as determined by UV absorbance being less than 0.1 AU at 340 nm and the sample being clear when manually inspected)	< 100
CC[C@H](C)[C@@H]1NC(=O)[C@@H](NC(=O)[C@@H](NC(=O)[C@H](CCC(=O)O)NC(=O)[C@H](CO)NC(C)=O)[C@@H](C)CC)CSSC[C@@H](C(=O)N[C@H](C(=O)N[C@@H](CCC(=O)O)C(=O)N[C@@H](C)C(N)=O)[C@@H](C)O)NC(=O)[C@H](CCCNC(=N)N)NC(=O)[C@H](Cc2c[nH]cn2)NC(=O)[C@H](CCC(=O)O)NC(=O)CNC(=O)[C@H](Cc2c[nH]c3ccccc23)NC(=O)[C@H](CC(=O)O)NC(=O)[C@H](CCC(N)=O)NC(=O)[C@H](Cc2c[nH]c3ccccc23)NC1=O [Compound 32] (Ac-SEICIWQDWGEHRCTEA-NH2; disulfide 4-14)	− (“−” denotes lack of solubility at the given condition, as UV absorbance at 340 nm exceeds 0.1 AU and/or it is visibly turbid or contains particles)	− (“−” denotes lack of solubility at the given condition, as UV absorbance at 340 nm exceeds 0.1 AU and/or it is visibly turbid or contains particles)	− (“−” denotes lack of solubility at the given condition, as UV absorbance at 340 nm exceeds 0.1 AU and/or it is visibly turbid or contains particles)	+ (“+” denotes solubility at the given condition, as determined by UV absorbance being less than 0.1 AU at 340 nm and the sample being clear when manually inspected)	+ (“+” denotes solubility at the given condition, as determined by UV absorbance being less than 0.1 AU at 340 nm and the sample being clear when manually inspected)	< 100
CC[C@H](C)[C@@H]1NC(=O)[C@@H](NC(=O)[C@@H](NC(=O)[C@H](CCC(=O)O)NC(C)=O)[C@@H](C)CC)CSSC[C@@H](C(=O)N[C@H](C(=O)N[C@@H](CCC(=O)O)C(N)=O)[C@@H](C)O)NC(=O)[C@H](CCCNC(=N)N)NC(=O)[C@H](Cc2c[nH]cn2)NC(=O)[C@H](CCC(=O)O)NC(=O)CNC(=O)[C@H](Cc2c[nH]c3ccccc23)NC(=O)[C@H](CC(=O)O)NC(=O)[C@H](CCC(N)=O)NC(=O)[C@H](Cc2c[nH]c3ccccc23)NC1=O [Compound 33] (Ac-EICIWQDWGEHRCTE-NH2; disulfide 3-13)	− (“−” denotes lack of solubility at the given condition, as UV absorbance at 340 nm exceeds 0.1 AU and/or it is visibly turbid or contains particles)	− (“−” denotes lack of solubility at the given condition, as UV absorbance at 340 nm exceeds 0.1 AU and/or it is visibly turbid or contains particles)	+ (“+” denotes solubility at the given condition, as determined by UV absorbance being less than 0.1 AU at 340 nm and the sample being clear when manually inspected)	+ (“+” denotes solubility at the given condition, as determined by UV absorbance being less than 0.1 AU at 340 nm and the sample being clear when manually inspected)	+ (“+” denotes solubility at the given condition, as determined by UV absorbance being less than 0.1 AU at 340 nm and the sample being clear when manually inspected)	< 100
CC[C@H](C)[C@@H]1NC(=O)[C@@H](NC(=O)[C@@H](NC(=O)[C@H](CCC(=O)O)NC(=O)[C@H](CO)NC(=O)[C@H](CCC(=O)O)NC(C)=O)[C@@H](C)CC)CSSC[C@@H](C(=O)N[C@@H](CCC(=O)O)C(=O)NCC(=O)N[C@@H](CCC(=O)O)C(N)=O)NC(=O)[C@H](CCCNC(=N)N)NC(=O)[C@H](Cc2c[nH]cn2)NC(=O)[C@H](CCC(=O)O)NC(=O)CNC(=O)[C@H](Cc2c[nH]c3ccccc23)NC(=O)[C@H](CC(=O)O)NC(=O)[C@H](CCC(N)=O)NC(=O)[C@H](Cc2c[nH]c3ccccc23)NC1=O [Compound 36] (Ac-ESEICIWQDWGEHRCEGE-NH2; disulfide 5-15)	− (“−” denotes lack of solubility at the given condition, as UV absorbance at 340 nm exceeds 0.1 AU and/or it is visibly turbid or contains particles)	− (“−” denotes lack of solubility at the given condition, as UV absorbance at 340 nm exceeds 0.1 AU and/or it is visibly turbid or contains particles)	− (“−” denotes lack of solubility at the given condition, as UV absorbance at 340 nm exceeds 0.1 AU and/or it is visibly turbid or contains particles)	+ (“+” denotes solubility at the given condition, as determined by UV absorbance being less than 0.1 AU at 340 nm and the sample being clear when manually inspected)	+ (“+” denotes solubility at the given condition, as determined by UV absorbance being less than 0.1 AU at 340 nm and the sample being clear when manually inspected)	< 250
CC[C@H](C)[C@H](NC(=O)[C@H](C)NC(=O)[C@H](CO)NC(=O)CNC(C)=O)C(=O)N[C@H]1CSSC[C@@H](C(=O)N(C)CC(=O)N[C@@H](CCC(=O)O)C(N)=O)NC(=O)[C@H](CCCNC(=N)N)NC(=O)[C@H](Cc2c[nH]cn2)NC(=O)[C@H](CCC(=O)O)NC(=O)CNC(=O)[C@H](Cc2c[nH]c3ccccc23)NC(=O)[C@H](CC(=O)O)NC(=O)[C@H](CCC(N)=O)NC(=O)[C@H](Cc2c[nH]c3ccccc23)NC(=O)[C@H]([C@@H](C)CC)NC1=O [Compound 40] (Ac-GSAICIWQDWGEHRC[Sar]E-NH2; disulfide 5-15)	− (“−” denotes lack of solubility at the given condition, as UV absorbance at 340 nm exceeds 0.1 AU and/or it is visibly turbid or contains particles)	− (“−” denotes lack of solubility at the given condition, as UV absorbance at 340 nm exceeds 0.1 AU and/or it is visibly turbid or contains particles)	+ (“+” denotes solubility at the given condition, as determined by UV absorbance being less than 0.1 AU at 340 nm and the sample being clear when manually inspected)	+ (“+” denotes solubility at the given condition, as determined by UV absorbance being less than 0.1 AU at 340 nm and the sample being clear when manually inspected)	+ (“+” denotes solubility at the given condition, as determined by UV absorbance being less than 0.1 AU at 340 nm and the sample being clear when manually inspected)	< 250
CC[C@H](C)[C@H](NC(=O)[C@H](C)NC(=O)[C@H](CO)NC(C)=O)C(=O)N[C@H]1CSSC[C@@H](C(=O)N(C)CC(=O)N[C@@H](CCC(=O)O)C(N)=O)NC(=O)[C@H](CCCNC(=N)N)NC(=O)[C@H](Cc2c[nH]cn2)NC(=O)[C@H](CCC(=O)O)NC(=O)CNC(=O)[C@H](Cc2c[nH]c3ccccc23)NC(=O)[C@H](CC(=O)O)NC(=O)[C@H](CCC(N)=O)NC(=O)[C@H](Cc2c[nH]c3ccccc23)NC(=O)[C@H]([C@@H](C)CC)NC1=O [Compound 41] (Ac-SAICIWQDWGEHRC[Sar]E-NH2; disulfide 4-14)	− (“−” denotes lack of solubility at the given condition, as UV absorbance at 340 nm exceeds 0.1 AU and/or it is visibly turbid or contains particles)	− (“−” denotes lack of solubility at the given condition, as UV absorbance at 340 nm exceeds 0.1 AU and/or it is visibly turbid or contains particles)	+ (“+” denotes solubility at the given condition, as determined by UV absorbance being less than 0.1 AU at 340 nm and the sample being clear when manually inspected)	+ (“+” denotes solubility at the given condition, as determined by UV absorbance being less than 0.1 AU at 340 nm and the sample being clear when manually inspected)	+ (“+” denotes solubility at the given condition, as determined by UV absorbance being less than 0.1 AU at 340 nm and the sample being clear when manually inspected)	< 250
